Measured values: ChEMBL document CHEMBL1921678, “The discovery of novel cyclohexylamide CCR2 antagonists” (Bioorg Med Chem Lett, 2011)
Activity calls are given as the source filed them. The rule behind the calls is not given here.

target: C-C chemokine receptor type 2 (Homo sapiens, UniProt P41597); assay: Antagonist activity at human CCR2; type: functional; conditions: not given
Sequence (P41597 whole entry): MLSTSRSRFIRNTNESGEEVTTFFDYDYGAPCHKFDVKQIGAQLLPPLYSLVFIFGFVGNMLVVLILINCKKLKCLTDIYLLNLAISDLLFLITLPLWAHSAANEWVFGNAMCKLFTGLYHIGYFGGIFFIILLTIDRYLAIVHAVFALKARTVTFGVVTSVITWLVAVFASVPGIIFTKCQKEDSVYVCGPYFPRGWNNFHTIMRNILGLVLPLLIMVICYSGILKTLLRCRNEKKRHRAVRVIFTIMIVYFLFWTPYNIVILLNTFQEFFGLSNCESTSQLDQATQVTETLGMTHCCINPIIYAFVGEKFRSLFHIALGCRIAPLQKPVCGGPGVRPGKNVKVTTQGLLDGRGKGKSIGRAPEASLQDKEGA

IC50 [µM] | Structure (SMILES)
> 25 | NC(=O)C(NC1CCC(c2c[nH]c3ccccc23)CC1)C1CCN(C(=O)CCc2ccccc2)CC1 (configuration not stated)
15.8 | CC(C)C1CCC(NC(C(N)=O)C2CCN(C(=O)/C=C/c3cc(F)c(F)c(F)c3)CC2)CC1 (configuration not stated)
6 | NC(=O)C(NC1CCC(c2ccccc2)CC1)C1CCN(C(=O)/C=C/c2cc(F)c(F)c(F)c2)CC1 (configuration not stated)
0.9 | COC(=O)C(NC1CCC(c2c[nH]c3ccccc23)CC1)C1CCN(C(=O)/C=C/c2cc(F)c(F)c(F)c2)CC1 (configuration not stated)
0.038 | NC(=O)C(NC1CCC(c2c[nH]c3ccccc23)CC1)C1CCN(C(=O)/C=C/c2ccc(F)c(F)c2)CC1 (configuration not stated)
8.6 | CC(NC1CCC(c2c[nH]c3ccccc23)CC1)C1CCN(C(=O)/C=C/c2cc(F)c(F)c(F)c2)CC1 (configuration not stated)
> 25 | NC(=O)C(NC1CCC(c2c[nH]c3ccccc23)CC1)C1CCN(C(=O)c2ccccc2)CC1 (configuration not stated)

target: T1, Voltage-gated inwardly rectifying potassium channel KCNH2 (Homo sapiens, UniProt Q12809); assay: Inhibition of human ERG; conditions: not given
T1 sequence (Q12809 whole entry): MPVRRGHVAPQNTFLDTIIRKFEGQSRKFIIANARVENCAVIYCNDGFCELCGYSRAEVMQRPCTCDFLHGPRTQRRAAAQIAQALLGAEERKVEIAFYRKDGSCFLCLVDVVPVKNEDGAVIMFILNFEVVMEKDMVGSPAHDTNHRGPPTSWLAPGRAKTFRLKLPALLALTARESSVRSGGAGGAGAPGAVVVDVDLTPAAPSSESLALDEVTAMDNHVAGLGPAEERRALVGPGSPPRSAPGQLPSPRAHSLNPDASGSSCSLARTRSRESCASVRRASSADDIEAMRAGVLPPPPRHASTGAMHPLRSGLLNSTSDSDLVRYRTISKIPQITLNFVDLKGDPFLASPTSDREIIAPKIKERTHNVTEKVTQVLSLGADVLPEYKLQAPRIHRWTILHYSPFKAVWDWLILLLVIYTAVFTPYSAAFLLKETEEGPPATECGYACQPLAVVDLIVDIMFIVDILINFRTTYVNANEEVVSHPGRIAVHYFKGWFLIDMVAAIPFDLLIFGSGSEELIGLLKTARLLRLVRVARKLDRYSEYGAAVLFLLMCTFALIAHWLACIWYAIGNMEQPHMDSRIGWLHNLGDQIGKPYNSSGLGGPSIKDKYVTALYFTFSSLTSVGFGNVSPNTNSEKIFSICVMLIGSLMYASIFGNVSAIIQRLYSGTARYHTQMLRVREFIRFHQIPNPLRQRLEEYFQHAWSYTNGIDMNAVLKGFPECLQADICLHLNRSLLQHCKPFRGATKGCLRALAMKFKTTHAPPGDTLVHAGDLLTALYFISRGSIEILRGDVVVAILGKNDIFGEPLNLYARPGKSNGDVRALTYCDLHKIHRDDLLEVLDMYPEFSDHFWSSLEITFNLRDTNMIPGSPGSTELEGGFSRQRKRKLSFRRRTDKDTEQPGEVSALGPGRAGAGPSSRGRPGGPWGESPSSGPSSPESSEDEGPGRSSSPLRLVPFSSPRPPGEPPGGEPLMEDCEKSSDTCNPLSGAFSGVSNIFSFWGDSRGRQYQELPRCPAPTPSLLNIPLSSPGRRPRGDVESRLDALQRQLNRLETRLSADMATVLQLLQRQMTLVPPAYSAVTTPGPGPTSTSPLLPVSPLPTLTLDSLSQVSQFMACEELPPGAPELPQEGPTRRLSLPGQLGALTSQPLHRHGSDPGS

Structure (SMILES) | INH [µM]
NC(=O)C(NC1CCC(c2c[nH]c3ccccc23)CC1)C1CCN(C(=O)/C=C/c2cc(F)cc(F)c2)CC1 (single isomer, unassigned; (-)) | 20.375
CNC(=O)C(NC1CCC(c2c[nH]c3ccccc23)CC1)C1CCN(C(=O)/C=C/c2cc(F)c(F)c(F)c2)CC1 (configuration not stated) | 5.4
NC(=O)C(NC1CCC(c2c[nH]c3ccccc23)CC1)C1CCN(C(=O)/C=C/c2ccccc2F)CC1 (configuration not stated) | 4.128
CN(C)C(=O)C(NC1CCC(c2c[nH]c3ccccc23)CC1)C1CCN(C(=O)/C=C/c2cc(F)c(F)c(F)c2)CC1 (configuration not stated) | 4.4
NC(=O)C(NC1CCC(c2c[nH]c3ccccc23)CC1)C1CCN(C(=O)/C=C/c2ccc(Cl)cc2)CC1 (configuration not stated) | 0.87
O=C(NO)C(NC1CCC(c2c[nH]c3ccccc23)CC1)C1CCN(C(=O)/C=C/c2cc(F)c(F)c(F)c2)CC1 (configuration not stated) | 41
O=C(O)C(C1CCN(C(=O)/C=C/c2cc(F)c(F)c(F)c2)CC1)N1CCC(c2c[nH]c3ccccc23)CC1 (configuration not stated) | 1.5
NC(=O)C(NC1CCC(c2c[nH]c3ccccc23)CC1)C1CCN(C(=O)/C=C/c2cc(F)c(F)c(F)c2)CC1 (configuration not stated) | 3.3
CC(C)C1CCC(NC(C(N)=O)C2CCN(C(=O)/C=C/c3cc(F)c(F)c(F)c3)CC2)CC1 (configuration not stated) | 6.2
NC(=O)C(NC1CCC(c2ccccc2)CC1)C1CCN(C(=O)/C=C/c2cc(F)c(F)c(F)c2)CC1 (configuration not stated) | 3.4
COC(=O)C(NC1CCC(c2c[nH]c3ccccc23)CC1)C1CCN(C(=O)/C=C/c2cc(F)c(F)c(F)c2)CC1 (configuration not stated) | 2.2
NC(=O)C(NC1CCC(c2c[nH]c3ccccc23)CC1)C1CCN(C(=O)/C=C/c2cc(F)cc(F)c2)CC1 (trans isomer) | 6.6
NC(=O)C(NC1CCC(c2c[nH]c3ccccc23)CC1)C1CCN(C(=O)/C=C/c2cc(F)cc(F)c2)CC1 (racemic) [listing 1 of 2 here] | 4.906
NC(=O)C(NC1CCC(c2c[nH]c3ncccc23)CC1)C1CCN(C(=O)/C=C/c2cc(F)c(F)c(F)c2)CC1 (configuration not stated) | 8.3
NC(=O)C(NC1CCC(c2c[nH]c3ccccc23)CC1)C1CCN(C(=O)/C=C/c2ccc(F)c(F)c2)CC1 (configuration not stated) | 1.714
NC(=O)C(NC1CCC(c2c[nH]c3ccccc23)CC1)C1CCN(C(=O)/C=C/c2ccc(C(F)(F)F)cc2)CC1 (configuration not stated) | 1.08
NC(=O)C(NC1CCC(c2c[nH]c3ccccc23)CC1)C1CCN(C(=O)/C=C/c2ccc(OC(F)(F)F)cc2)CC1 (configuration not stated) | 1.39
CC(NC1CCC(c2c[nH]c3ccccc23)CC1)C1CCN(C(=O)/C=C/c2cc(F)c(F)c(F)c2)CC1 (configuration not stated) | 0.29
NC(=O)C(NC1CCC(c2c[nH]c3ccccc23)CC1)C1CCN(C(=O)c2ccccc2)CC1 (configuration not stated) | 5.471
NC(=O)C(NC1CCC(c2c[nH]c3ccccc23)CC1)C1CCN(C(=O)/C=C\c2cc(F)cc(F)c2)CC1 (cis isomer) | 2.2
NC(=O)C(NC1CCC(c2c[nH]c3ccccc23)CC1)C1CCN(C(=O)/C=C/c2ccccc2)CC1 (configuration not stated) | 7.35
COc1ccc(C2CCC(NC(C(N)=O)C3CCN(C(=O)/C=C/c4cc(F)c(F)c(F)c4)CC3)CC2)cn1 (configuration not stated) | 11.7

test system: not listed separately; assay: Cmax in mouse at 10 mg/kg, po; type: ADME, organism-based; set-up: dose 10 mg/kg, route oral; conditions: in vivo

Cmax [ng/mL] | Structure (SMILES)
531 | NC(=O)C(NC1CCC(c2c[nH]c3ccccc23)CC1)C1CCN(C(=O)/C=C/c2cc(F)cc(F)c2)CC1 (racemic) [listing 1 of 2 here]

test system: not listed separately; assay: AUC in mouse at 10 mg/kg, po; type: ADME, organism-based; set-up: dose 10 mg/kg, route oral; conditions: plasma

AUC [ng·h/mL] | Structure (SMILES)
2420 | NC(=O)C(NC1CCC(c2c[nH]c3ccccc23)CC1)C1CCN(C(=O)/C=C/c2cc(F)cc(F)c2)CC1 (racemic) [listing 1 of 2 here]

test system: not listed separately; assay: Half life in mouse at 10 mg/kg, po; type: ADME, organism-based; set-up: dose 10 mg/kg, route oral; conditions: in vivo

half-life [h] | Structure (SMILES)
2.4 | NC(=O)C(NC1CCC(c2c[nH]c3ccccc23)CC1)C1CCN(C(=O)/C=C/c2cc(F)cc(F)c2)CC1 (racemic) [listing 1 of 2 here]

test system: not listed separately; assay: Oral bioavailability in mouse at 10 mg/kg; type: ADME, organism-based; conditions: in vivo

bioavailability [%] | Structure (SMILES)
50 | NC(=O)C(NC1CCC(c2c[nH]c3ccccc23)CC1)C1CCN(C(=O)/C=C/c2cc(F)cc(F)c2)CC1 (racemic) [listing 1 of 2 here]

test system: not listed separately; assay: Initial plasma concentration in mouse at 2 mg/kg, iv; type: ADME, organism-based; set-up: dose 2 mg/kg, route intravenous; conditions: not given

C0 [ng/mL] | Structure (SMILES)
1020 | NC(=O)C(NC1CCC(c2c[nH]c3ccccc23)CC1)C1CCN(C(=O)/C=C/c2cc(F)cc(F)c2)CC1 (racemic) [listing 1 of 2 here]

test system: not listed separately; assay: Volume of distribution at steady state in mouse at 2 mg/kg, iv; type: ADME, organism-based; set-up: dose 2 mg/kg, route intravenous; conditions: in vivo, read-out: Vdss

Vd [L/kg] | Structure (SMILES)
3.71 | NC(=O)C(NC1CCC(c2c[nH]c3ccccc23)CC1)C1CCN(C(=O)/C=C/c2cc(F)cc(F)c2)CC1 (racemic) [listing 1 of 2 here]

test system: not listed separately; assay: Clearance in mouse at 2 mg/kg, iv; type: ADME, organism-based; set-up: dose 2 mg/kg, route intravenous; conditions: in vivo

clearance [mL/min/kg] | Structure (SMILES)
31 | NC(=O)C(NC1CCC(c2c[nH]c3ccccc23)CC1)C1CCN(C(=O)/C=C/c2cc(F)cc(F)c2)CC1 (racemic) [listing 1 of 2 here]

test system: not listed separately; assay: Half life in mouse at 2 mg/kg, iv; type: ADME, organism-based; set-up: dose 2 mg/kg, route intravenous; conditions: in vivo

half-life [h] | Structure (SMILES)
1.9 | NC(=O)C(NC1CCC(c2c[nH]c3ccccc23)CC1)C1CCN(C(=O)/C=C/c2cc(F)cc(F)c2)CC1 (racemic) [listing 1 of 2 here]

target: T1, Voltage-gated inwardly rectifying potassium channel KCNH2; assay: Binding affinity to human ERG; conditions: not given

Structure (SMILES) | INH [µM]
NC(=O)C(NC1CCC(c2c[nH]c3ccccc23)CC1)C1CCN(C(=O)/C=C/c2cc(F)cc(F)c2)CC1 (racemic) [listing 1 of 2 here] | 8

target: T1, Voltage-gated inwardly rectifying potassium channel KCNH2; assay: Inhibition of human ERG by patch clamp assay; conditions: not given

Structure (SMILES) | INH [nM]
NC(=O)C(NC1CCC(c2c[nH]c3ccccc23)CC1)C1CCN(C(=O)/C=C/c2cc(F)cc(F)c2)CC1 (racemic) [listing 1 of 2 here] | 600

test system: Cavia porcellus; assay: Cardiotoxicity in guinea pig hemodynamic model assessed as mean arterial pressure at 10 mg/kg, iv; type: toxicity, organism-based, Artery; set-up: dose 10 mg/kg, route intravenous; conditions: in vivo

Structure (SMILES) | Activity
NC(=O)C(NC1CCC(c2c[nH]c3ccccc23)CC1)C1CCN(C(=O)/C=C/c2cc(F)cc(F)c2)CC1 (racemic) [listing 1 of 2 here] | Non-toxic

test system: Cavia porcellus; assay: Cardiotoxicity in guinea pig hemodynamic model assessed as heart rate at 10 mg/kg, iv; type: toxicity, organism-based; set-up: dose 10 mg/kg, route intravenous; conditions: in vivo

Structure (SMILES) | Activity
NC(=O)C(NC1CCC(c2c[nH]c3ccccc23)CC1)C1CCN(C(=O)/C=C/c2cc(F)cc(F)c2)CC1 (racemic) [listing 1 of 2 here] | Non-toxic

test system: Cavia porcellus; assay: Cardiotoxicity in guinea pig hemodynamic model assessed as QT interval at 10 mg/kg, iv; type: toxicity, organism-based; set-up: dose 10 mg/kg, route intravenous; conditions: in vivo

Structure (SMILES) | Activity
NC(=O)C(NC1CCC(c2c[nH]c3ccccc23)CC1)C1CCN(C(=O)/C=C/c2cc(F)cc(F)c2)CC1 (racemic) [listing 1 of 2 here] | Non-toxic

test system: Cavia porcellus; assay: Cardiotoxicity in guinea pig hemodynamic model assessed as QTc at 10 mg/kg, iv; type: toxicity, organism-based; set-up: dose 10 mg/kg, route intravenous; conditions: in vivo

Structure (SMILES) | Activity
NC(=O)C(NC1CCC(c2c[nH]c3ccccc23)CC1)C1CCN(C(=O)/C=C/c2cc(F)cc(F)c2)CC1 (racemic) [listing 1 of 2 here] | Non-toxic

test system: Cavia porcellus; assay: Cardiotoxicity in guinea pig hemodynamic model assessed as QRS duration at 10 mg/kg, iv; type: toxicity, organism-based; set-up: dose 10 mg/kg, route intravenous; conditions: in vivo

Structure (SMILES) | Activity
NC(=O)C(NC1CCC(c2c[nH]c3ccccc23)CC1)C1CCN(C(=O)/C=C/c2cc(F)cc(F)c2)CC1 (racemic) [listing 1 of 2 here] | Non-toxic

test system: Cavia porcellus; assay: Cardiotoxicity in guinea pig hemodynamic model assessed as PR interval at 10 mg/kg, iv; type: toxicity, organism-based; set-up: dose 10 mg/kg, route intravenous; conditions: in vivo

Structure (SMILES) | Activity
NC(=O)C(NC1CCC(c2c[nH]c3ccccc23)CC1)C1CCN(C(=O)/C=C/c2cc(F)cc(F)c2)CC1 (racemic) [listing 1 of 2 here] | Non-toxic

target: C-C chemokine receptor type 2 (Mus musculus) (UniProt P51683); assay: Antagonist activity at mouse CCR2; type: functional; conditions: not given
Sequence (P51683 whole entry, looked up): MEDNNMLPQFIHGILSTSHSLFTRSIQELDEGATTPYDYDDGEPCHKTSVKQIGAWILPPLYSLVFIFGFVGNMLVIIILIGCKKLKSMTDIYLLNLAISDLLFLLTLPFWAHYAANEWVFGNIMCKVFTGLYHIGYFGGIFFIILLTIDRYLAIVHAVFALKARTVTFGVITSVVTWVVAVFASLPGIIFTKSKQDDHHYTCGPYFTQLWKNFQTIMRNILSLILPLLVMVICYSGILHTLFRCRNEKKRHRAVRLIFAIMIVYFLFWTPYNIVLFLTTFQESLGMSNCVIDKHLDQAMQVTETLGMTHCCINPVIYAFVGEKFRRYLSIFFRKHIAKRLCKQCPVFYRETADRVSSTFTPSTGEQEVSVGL

inhibition | Structure (SMILES)
inactive | NC(=O)C(NC1CCC(c2c[nH]c3ccccc23)CC1)C1CCN(C(=O)/C=C/c2cc(F)cc(F)c2)CC1 (racemic) [listing 2 of 2 here]

test system: Mus musculus; assay: Antiinflammatory activity in human CCR2 transgenic C57BL/6 mouse assessed as reduction of thioglycollate-induced peritonitis at 30 mg/kg, po; type: functional, organism-based; set-up: dose 30 mg/kg; conditions: not given

Structure (SMILES) | Activity
NC(=O)C(NC1CCC(c2c[nH]c3ccccc23)CC1)C1CCN(C(=O)/C=C/c2cc(F)cc(F)c2)CC1 (racemic) [listing 2 of 2 here] | Active
